Assay results published in article PMC12392461, “Beyond Estrogenicity: A Comparative Assessment of Bisphenol A and Its Alternatives in In Vitro Assays Questions Safety of Replacements” (Environmental Science & Technology, 2025).
Read-outs that look alike come from different tables or passages of the source.

What was measured:
[1] = tested on: Mitochondrial Membrane Potential; assay: cells; conditions: for EC10, linear / logEC10: MMP bioassay, dosing range all; for EC10, linear: linear model; for Specificity ratio (SRbaseline) SRMMP: against baseline cytotoxicity; for Specificity ratio (SRcytotoxicity) SRMMP: against experimental cytotoxicity; for log(1/EC10) MMP: input of the ToxPi score, values up to 1.00; for Relative effect potency REPMMP: relative to BPA; for SR (MMP inhibition): specificity ratio; for logEC10: log-logistic model
Text: (§1) All bioassay media components and the ERα-UAS-bla GripTite and PPARγ-UAS-bla cells were obtained from Thermo Fisher Scientific (Waltham, MA, USA). AREc32 reporter gene cells based on MCF7 were provided by C. Roland Wolf (Cancer Research UK); AhR CALUX cells (H4L7.5c2 derived from H4IIe) were provided by Michael Denison (UC Davis, USA); and SH-SY5Y cells were purchased from Sigma-Aldrich.
(§2) Cell culture conditions and bioassay protocols including response detection are provided in Text S2.1–2.4 and Table S3. − Cell viability was determined from cell confluency using an IncuCyte S3 Live-Cell Analysis System (Sartorius AG, Essen, Germany) before and after exposure, except for SH-SY5Y cells (live–dead staining with Nuclear Green LcS1 and propidium iodide, Abcam, UK). For metabolic activation experiments, cell viability was assessed using the ToxBLAzer DualScreen Kit (Thermo Fisher Scientific) to capture the remaining toxicity in ERα-UAS-bla GripTite after treatment with the aCYP catalyst (details in Text S2.4).
(§3) For ARE, the concentration that triggered an induction ratio of 1.5 (ECIR1.5) was used as the benchmark value, as detailed in Text S2.5. IC10 values also served as a threshold for data analysis in all assays; only concentrations below IC10 were considered when deriving EC10 or ECIR1.5. […]
(§4) S2: Cell culture and bioassays
(§5) S2.1: Cell Culturing Conditions
All suppliers and sources are given in detail in SI-Excel S3. The bioassay media for the different assays were prepared as follows: Assay medium for ER alpha-UAS-bla GripTite (ERα) and […]
2% charcoal-stripped FBS, and 100 U/mL penicillin-streptomycin. MitoOxTox and AhR assay medium was comprised of 90% DMEM with GlutaMAX, supplemented with 10% FBS, and 100 U/mL penicillin-streptomycin. […]
S2.2: Cell Seeding and Incubation. For all bioassays, cell suspensions in the respective assay medium were dispensed into each well of 384-well plates using a MultiFlo Dispenser (Biotek, (now Agilent), Winooski, VT, U.S.). After seeding, the plates were incubated at 37° C and 5% CO₂ for […]. The final cell densities and plate types were as follows: Black poly-D-lysine […]
(§6) 6500 cells/well, ERα: 5000 cells/well. White 384-well plates with a clear bottom (Product No.
NYC, U.S.) for AhR: 3250 cells/well. Black Collagen I coated plates were used (Product No.
S2.3: Chemical Dosing and Assay Analysis Procedures. The dosing procedure and high-throughput assay workflow have been described in detail before. 9 The dosing concentrations […]
Stock solutions were then either

[2] = tested on: ERα-UAS-bla GripTite cells; conditions: for TKcytotoxicity: TKcytotoxicity-Ratio
Procedure: as §2, with “S2.4). […]” for “S2.4).”
The TK-Ratio method was used to evaluate the impact of abiotic CYP oxidation on the potency of tested compounds. […]
For experiments with the preceding aCYP activation, ERα cell viability was additionally calculated from the readout of the ToxBLAzer reagent. The ToxBLAzer assay was conducted following the manufacturer's instructions (Thermo Fisher, Waltham, MA, U.S.).13 Fluorescence intensity was recorded at the start of the assay ( Fwavelength(0h)) and after a 2-hour incubation at […]
eq. S11 for normalization.
Cell viability = F665nm(2h, sample)-F665nm(0h, average cell-free) (S11) F665nm(2h, average unexposed)-F665nm(0h, average cell-free) […]
the specific endpoint to avoid artifacts from cytotoxicity burst. 15
S2.5: Concentration-response curves (CRCs)
To avoid bias from cytotoxicity burst at higher concentrations, all concentrations exceeding the IC10 for cytotoxicity were excluded in the CRC modeling of effects but otherwise cytotoxicity and effects were fitted with the same model equations (response stands for cytotoxicity or effect). For ERα, AhR, ARE and PPARγ preferably a linear model was fitted to the linear portion of CRC up to maximum 30% effect (eq. S12),16 but in some cases it was necessary to choose a sigmoidal log-concentration-response model, specifically a log-logistic model (eq. S13), to derive effect concentrations and cytotoxicity. […]
This was done using the
AutomatedBioassayScreening19 published by Braun et al.,20 which also included an algorithm to choose the best model between eq. S12 and eq. S13.
Response (%) = slope × C (S12) […]
logEC =logEC − 1 ∙log (max−min − 100%) (S14)

[3] = tested on: Antioxidant response element; assay: MitoOxTox: oxidative stress response in AREc32; conditions: for EC10, linear: linear model fit; for Specificity ratio (SRbaseline) SRARE: against baseline cytotoxicity; for Specificity ratio (SRcytotoxicity) SRARE: against experimental cytotoxicity; for ECIR1.5, ARE: effect; for ECIR1.5, ARE / ECIR1.5, ARE (M): induction ratio 1.5; for log(1/EC10) AREc32: input of the ToxPi score, values up to 1.00; for SR (ARE): specificity ratio
Text: as §1, §2, §3, §4, §5
All suppliers and sources are given in detail in SI-Excel S3. The bioassay media for the different assays were prepared as follows: Assay medium for ER alpha-UAS-bla GripTite (ERα) and PPAR gamma-UAS-bla 293H (PPARγ) was prepared with 98% Opti-MEM, supplemented with 2% charcoal-stripped FBS, and 100 U/mL penicillin-streptomycin. MitoOxTox and AhR assay medium was comprised of 90% DMEM with GlutaMAX, supplemented with 10% FBS, and 100 U/mL penicillin-streptomycin. Neurotoxicity assay medium consisted of the neurobasal […]
(1 picture or pasted object on this page, not shown here) […]
medium, supplemented with 2% B-27 Supplement and 2 mM GlutaMAX Supplement. SH - SY5Y cells were differentiated with 10 µM all-trans retinoic acid prior to the assay.
S2.2: Cell Seeding and Incubation. For all bioassays, cell suspensions in the respective assay medium were dispensed into each well of 384-well plates using a MultiFlo Dispenser (Biotek, (now Agilent), Winooski, VT, U.S.). After seeding, the plates were incubated at 37° C and 5% CO₂ for […]. The final cell densities and plate types were as follows: Black poly-D-lysine coated 384-well plates (Product No. 354663, Corning Inc., NYC, U.S.) were used for PPARγ:
as §6
781098, Greiner, Kremsmünster, Austria) were utilized for the MitoOxTox assay: 2650

[4] = Arec32, read-out: EC10, MMP (M)
[5] = Arec32, read-out: EC10, linear transformed
[6] = Bioassay ARE, dosing range all, log-logistic model fit

| Structure (SMILES) | EC10 ([1]; Arec32, read-out: EC10, MMP) | EC10 [1, 4] | EC10 [1, 5] | EC10 ([1]; Arec32, read-out: logEC10) | EC10, linear [1] | Specificity ratio (SRbaseline) SRMMP [1] | Specificity ratio (SRcytotoxicity) SRMMP [1] | Relative effect potency REPMMP [1] | TKcytotoxicity ([2]; Table S10) | EC10, linear ([3]; Bioassay ARE, dosing range all) | logEC10 [3, 6] | EC10 ([1]; Arec32, read-out: EC10, linear) | SR (MMP inhibition) [1] | EC10 ([3]; Arec32, read-out: EC10, linear) | EC10 [3, 5] | also measured |
| --- | --- | --- | --- | --- | --- | --- | --- | --- | --- | --- | --- | --- | --- | --- | --- | --- |
| CC(C)(c1ccc(O)c(-c2ccccc2)c1)c1ccc(O)c(-c2ccccc2)c1 [BPPH, 2,2-Bis(2-hydroxy-5-biphenylyl)propane] | 1.96e-06 M | 1.96e-06 M | 1.94e-06 M | 1.95e-06 M | no effect | 2.08 | 3.95 | 14.27 | 0.11 | no effect | no effect | – | – | – | – | log(1/EC10) MMP [1]: 1.00 |
| C=CCOc1ccc(S(=O)(=O)c2ccc(O)cc2)cc1 [BPS-MAE, 4-[[4-(Allyloxy)phenyl]sulfonyl]phenol] | 7.85e-05 M | 7.85e-05 M | 8.31e-05 M | 7.76e-05 M | – | – | – | – | 2.91 | no effect | no effect | 5.59e-05 M | – | – | – | – |
| O=S(=O)(c1ccc(O)cc1)c1ccc(OCc2ccccc2)cc1 [BPS-MPE, 4-[4-(benzyloxy)benzenesulfonyl]phenol] | 5.59e-06 M | 5.59e-06 M | 5.91e-06 M | 5.62e-06 M | – | 6.33 | 21.99 | 5.01 | 0.45 | – | no effect | 3.72e-06 M | 22 | 55.7 µM | 133 µM | – |
| Oc1ccc(Sc2ccc(O)cc2)cc1 [BPT, 4,4'-Thiodiphenol] | 1.83e-05 M | 1.83e-05 M | 1.82e-05 M | 1.82e-05 M | no effect | – | – | – | 1.35 | – | masked by cytotoxicity | – | > 10 | 85.6 µM | 1500 µM | TKcytotoxicity ([2]; Table S11): 1.00 |
| Cc1ccc(S(=O)(=O)NC(=O)Nc2ccc(Cc3ccc(NC(=O)NS(=O)(=O)c4ccc(C)cc4)cc3)cc2)cc1 [BTUM, 4,4'-Bis(p-tolylsulfonylureido)diphenylmethane] | – | – | – | – | no effect | – | – | – | – | no effect | no effect | – | – | – | – | logEC10 [1]: no effect; IC10, before oxidation ([2]; Table S10, cytotoxicity from ToxBLazer data, without simultaneous cparent measurement): no cytotoxicity; TKcytotoxicity ([2]; Table S11): 2.25 |
| COC(=O)C(c1ccc(O)cc1)c1ccc(O)cc1 [Bz, Methyl bis(4-hydroxyphenyl)acetate] | – | – | 5.74e-05 M | 6.46e-05 M | – | – | – | – | 2.48 | no effect | no effect | 3.72e-05 M | – | – | 2200 µM | log(1/EC10) MMP [1]: 0.84; TKcytotoxicity (TK-Ratio for cytotoxicity) ([2]; IC10 before/after aCYP oxidation): 2.48 ± 0.69 |
| O=C(OCc1ccccc1)c1ccc(O)cc1 [BzPB, Benzyl 4-hydroxybenzoate] | 2.44e-05 M | 2.44e-05 M | 2.45e-05 M | 2.45e-05 M | – | 1.38 | 12.18 | 1.15 | 1.10 | – | – | 1.68e-05 M | > 10 | 32.1 µM | 16.7 µM | EC10 ([3]; Arec32, read-out: logEC10): 19.5 µM; Specificity ratio (SRbaseline) SRARE [3]: 1.73; Specificity ratio (SRcytotoxicity) SRARE [3]: 4.62; ECIR1.5, ARE [3]: 19.4 µM; ECIR1.5, ARE (M) [3]: 1.94 × 10^–5 M; log(1/EC10) AREc32 [3]: 1.00; SR (ARE) [3]: < 10 |
| CC(C)Oc1ccc(S(=O)(=O)c2ccc(O)cc2)cc1 [D8, 4-((4-Isopropoxyphenyl)sulfonyl)phenol] | 5.2e-05 M | 5.2e-05 M | 5.14e-05 M | 5.25e-05 M | – | 2.47 | 41.11 | 0.54 | 0.94 | – | – | 5.8e-05 M | 41 | 1080 µM | 932 µM | EC10 ([3]; Arec32, read-out: logEC10): 1230 µM; Specificity ratio (SRbaseline) SRARE [3]: 0.11; Specificity ratio (SRcytotoxicity) SRARE [3]: 1.77; ECIR1.5, ARE [3]: 1220 µM; ECIR1.5, ARE (M) [3]: 1.22 × 10^–3 M; log(1/EC10) AREc32 [3]: 0.62; SR (ARE) [3]: < 10 |
| Cc1ccc(S(=O)(=O)NC(=O)Nc2cccc(OS(=O)(=O)c3ccc(C)cc3)c2)cc1 [Pergafast, N-(p-toluenesulfonyl)-N'-(3-(p-toluenesulfonyloxy)phenyl)urea] | – | – | – | – | no effect | – | – | – | 0.45 | no effect | no effect | – | – | – | – | logEC10 [1]: no effect; log(1/EC10) MMP [1]: 0.92 |
| CC(C)(c1cc(Br)c(O)c(Br)c1)c1cc(Br)c(O)c(Br)c1 [TBBPA, 3,3',5,5'-Tetrabromobisphenol A] | 2.83e-05 M | 2.83e-05 M | 2.89e-05 M | 2.82e-05 M | – | – | – | – | 0.52 | no effect | – | 1.94e-05 M | – | – | – | logEC10 [3]: no effect |
| CC(C)(c1cc(Cl)c(O)c(Cl)c1)c1cc(Cl)c(O)c(Cl)c1 [TCBPA, 2,2',6,6'-Tetrachlorobisphenol A] | 1.48e-05 M | 1.48e-05 M | 1.6e-05 M | 1.48e-05 M | – | – | – | – | 0.85 | no effect | no effect | 1.15e-05 M | – | – | – | TKcytotoxicity ([2]; Table S11): 0.40 |
| Cc1cc(Cc2cc(C)c(O)c(C)c2)cc(C)c1O [TMBPF, Bis(3,5-dimethyl-4-hydroxyphenyl)methane] | – | – | 6.68e-05 M | – | no effect | – | – | – | 0.35 | no effect | no effect | – | – | – | – | logEC10 [1]: no effect |
